From patent publication US4292305A, “Antiallergic imidodisulfamides” (SmithKline Corporation, priority 1980, dated 1981)

System: slow reacting substance of anaphylaxis (SRS-A)
Assay: Inhibition of SRS-A induced contraction of guinea pig ileum
Assay type: cell-based
Details: Cavia porcellus, 0.25 h, partially purified SRS-A from guinea pig lung at 40 μg/ml, isolated guinea pig ileum, read-out: antagonism of SRS-A
Experimental: The SRS-A antagonist activity of the compounds of this invention is measured by the ability of the active medicament to inhibit SRS-A induced contraction of guinea pig ileum. In this test system, sections of ileum are resected from guinea pigs and placed in 5 ml. tissue baths containing a modified Tyrode's solution. One end of the tissue is fixed to a glass tissue holder, the other is connected to a force-displacement transducer and the tissue is placed under a tension of 500 mg. Isometric tissue contractions are recorded on a six channel polygraph. Baths are constantly aerated with 95% O2 -5% CO2. After a 20 minute stabilization period a concentration of the appropriate agonist which provides a contraction height of 60-80% of the maximum obtainable to that agonist (as determined from full sequential concentration--response curves in separate experiments) is added to the tissue bath and the response recorded. The procedure is repeated until reproducible responses are obtained. […] Percent inhibition produced by the test compound is calculated by substracting the mean percentage change in control tissue from the mean percentage change in tissues exposed to the test compound. Additional compounds are then evaluated as long as the tissue remains reproducibly responsive to the agonist. […]

Q: `O=S(=O)(Nc1ccc(Br)cc1)NS(=O)(=O)Nc1ccc(Br)cc1` [1,5-di-(4-bromophenyl)-imidodisulfamide] was tested. Which inhibition at 50 µM (test compound 5×10^-5 M) did it give?
A: Its inhibition at 50 µM is 47%.

Q: How did the inhibition at 10 µM (test compound 1×10^-5 M) turn out when `O=S(=O)(NCCCCc1ccccc1)NS(=O)(=O)NCCCCc1ccccc1` [1,5-di-(4-phenylbutyl)-imidodisulfamide] was run?
A: Its inhibition at 10 µM is 40%.
